Measured values taken from the METLIN SMRT retention time set (Domingo-Almenara et al. 2019).

Assay: gradient 5% acetonitrile 3 min, to 50% in 2 min, to 85% in 15 min, held 3 min, 100 µL/min
Settings: column: Zorbax Extend-C18 2.1 x 50 mm; eluents: water / acetonitrile, 0.1% formic acid
Procedure, shortened: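 Data were gathered over 3 months by HPLC coupled to a quadrupole time-of-flight mass spectrometer, operated in positive and negative ionization mode. Mixtures of ~100 pure standards ran on a Zorbax Extend-C18 column (2.1 × 50 mm, 1.8 μm) at 100 μL/min, with water and acetonitrile each containing 0.1% formic acid and dead and dwell volumes of 40 μL and 900 μL. Retention time was read from adduct peaks picked by computer and checked manually.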

First: O=C(Cn1nc(C(=O)N2CCCC2)c2ccccc21)N1CCN(C2CCCCC2)CC1
Second: O=C(CN1C(=O)C(C(=O)N2CCCC2)Sc2ccccc21)NC1CCCCCCC1 (centres undefined)
The RP-LC retention time of the first is lower: 597 s for the first, 1060 s for the second.

Going from `Cc1ccn2c(NC(=O)c3ccc(C)c(C)c3)c(-c3ccccc3)nc2c1` to `CCc1cccc(C)c1Nc1c(-c2cccc(O)c2)nc2ncccn12`, the RP-LC retention time rises from 709 s to 730 s.

First: CCn1ccc2c(cc(C(=O)Nc3ccccc3C(F)(F)F)n2C)c1=O
Second: Cc1ccc(-c2ccnc(SCC(=O)Nc3ccccc3C(F)(F)F)n2)cc1C
The RP-LC retention time of the first is lower: 742 s for the first, 1120 s for the second.

Compared with `CCCNC(=O)c1cc(-c2ccc(F)cc2)cn1CC`, `COCCNC(=O)c1cc2c(=O)n(Cc3ccccc3)ccc2s1` is lower in RP-LC retention time: 925 s for the first, 719 s for the second.

First: O=C(CN1CCN(c2ccccn2)CC1)N1c2ccccc2Sc2ccccc21
Second: O=C(c1ccc(-c2ccsc2)nc1)N1CCN(c2ccccc2)CC1
The RP-LC retention time of the first is lower: 652 s for the first, 909 s for the second.

First: CN(C1CCc2nn(CC3CC3)c(=O)n2CC1)S(=O)(=O)c1ccc(C(F)(F)F)cc1 (centres undefined)
Second: CCCN(CC1CCOC1)S(=O)(=O)c1cccc(C(F)(F)F)c1 (centres undefined)
The RP-LC retention time of the first is lower: 876 s for the first, 1000 s for the second.

First: O=C(Cn1cccc1-c1nc(-c2ccc3c(c2)OCO3)no1)Nc1ccc(F)c(Cl)c1
Second: Cc1nc(OCC(=O)NCc2ccc3c(c2)OCO3)c2ccccc2n1
The RP-LC retention time of the first is higher: 1030 s for the first, 698 s for the second.

Going from `CC(C)C(=O)Nc1ccc2c(c1)nc(CN1CCCC1)n2C(C)C` to `CN1C(=O)C(CC(=O)NCc2nc3ccccc3n2C)=C2CCCCC21` (centres undefined), the RP-LC retention time falls from 602 s to 600 s.

First: COCCn1cc2c3c(cccc31)CN(C(=O)Nc1cccc(Cl)c1)CC2
Second: COCCn1cc2c3c(cccc31)CN(C(=O)c1ccc(Cl)s1)CC2
The RP-LC retention time of the first is lower: 981 s for the first, 1060 s for the second.

Going from `CCc1cccc(C)c1NC(=O)Cn1c(=O)c(CCC(=O)NC2CCCC2)nc2ccccc21` to `O=C(NC1CCCC1)c1cn(Cc2ccccc2)cc2c(=O)n(-c3ccccc3)nc1-2`, the RP-LC retention time rises from 844 s to 1060 s.

Going from `CN1C(=O)CCc2cc(NC(=O)Cc3c(F)cccc3Cl)ccc21` to `CC1CC(=O)N(Cc2c(F)cccc2Cl)c2ccccc2N1` (centres undefined), the RP-LC retention time rises from 784 s to 897 s.

Going from `Cc1noc([C@@H]2CN(C(=O)c3cn[nH]c3)C[C@H]2C(N)=O)n1` to `CCCCC(=O)N1C[C@H](c2nc(-c3ccccc3)no2)[C@@H](C)C1`, the RP-LC retention time rises from 536 s to 971 s.

Compared with `COc1nccnc1N1CCC(NS(=O)(=O)c2ccc(C)cc2)C1` (centres undefined), `Cc1ccc(NC(=O)C2CCN(S(C)(=O)=O)c3cc(C)ccc3O2)cc1` (centres undefined) is higher in RP-LC retention time: 759 s for the first, 976 s for the second.

Going from `CCOc1ccccc1NC(=O)Cn1nc2c(N3CCSCC3)nccn2c1=O` to `O=C(Cn1nc(N2CCCCCC2)c2ccccc2c1=O)Nc1ccc(Cl)cc1`, the RP-LC retention time rises from 853 s to 1160 s.

Going from `COc1ccc(N2CCN(C(=O)Cn3ccc4ccc(-c5nnc(C)o5)cc43)CC2)cc1` to `O=C(c1cn2ccccc2n1)N1CCN(c2ccc(Cl)cc2)CC1`, the RP-LC retention time falls from 753 s to 709 s.

Going from `COC(=O)c1ccc(NC(=O)CSc2ncnc3c2nnn3C)cc1` to `COC(=O)c1ccc(NC(=O)c2cc(C(C)(C)C)n3nccc3n2)cc1`, the RP-LC retention time rises from 683 s to 865 s.

Compared with `CCCNC(=O)C1CCCN(c2ccc(SCC(=O)Nc3ccc(C(F)(F)F)cc3)nn2)C1` (centres undefined), `CCOc1ccccc1CNC(=O)C1CCCN(c2ccc(=O)n(-c3cccc(Cl)c3)n2)C1` (centres undefined) is higher in RP-LC retention time: 690 s for the first, 968 s for the second.

Going from `COCC(=O)Nc1nc(-c2ccc3c(c2)NC(=O)CO3)c(C)s1` to `CCN1C(=O)COc2ccc(-c3nc(NC(=O)c4cc(OC)c(OC)c(OC)c4)sc3C)cc21`, the RP-LC retention time rises from 705 s to 1020 s.

Compared with `CN(C)C(=O)c1csc(S(=O)(=O)N2CCC(C(=O)NC3CCCC3)CC2)c1`, `CCC(=O)N1CCc2cc(N3CC(C(=O)NC4CCCCC4)CC3=O)ccc21` (centres undefined) is higher in RP-LC retention time: 696 s for the first, 728 s for the second.

Compared with `Cc1cc(=O)n(CC(=O)Nc2ccc(F)cc2C)c(N)n1`, `Cc1cc(F)ccc1NC(=O)c1cn2c(n1)CCCC2` is higher in RP-LC retention time: 586 s for the first, 600 s for the second.

First: COC(=O)c1ccc2c(=O)n(-c3cccc(OC)c3)c(N3CCN(c4ccccn4)CC3)nc2c1
Second: Cc1cccc(C)c1NC(=O)CSc1cc(N2CCN(c3ccccc3F)CC2)ncn1
The RP-LC retention time of the first is lower: 705 s for the first, 1100 s for the second.

Going from `O=c1c(NCc2ccccc2Cl)nc2ccncc2n1Cc1ccccc1` to `Cn1cc2c(n1)c(=O)n(Cc1ccccc1)c(=O)n2CC(=O)NCc1ccccc1`, the RP-LC retention time rises from 747 s to 769 s.

First: O=C1Nc2ccccc2C12OCC1(CO2)COC2(OC1)C(=O)Nc1ccccc12 (centres undefined)
Second: NC(=O)C1CCN(c2oc(-c3ccccc3Cl)nc2S(=O)(=O)c2ccccc2)CC1
The RP-LC retention time of the first is higher: 784 s for the first, 765 s for the second.

First: CCc1noc(NC(C)=O)c1-c1ccc(C)c(S(=O)(=O)Nc2cc(C)ccc2OC)c1
Second: CCCCn1c(=O)c2ccccc2n(Cc2nc(-c3ccc(OC)c(OC)c3)no2)c1=O
The RP-LC retention time of the first is lower: 884 s for the first, 1060 s for the second.

First: O=C(NCc1ccccc1Br)C1CCN(c2cnc3nccnc3c2)CC1
Second: O=C(NCc1ccccc1F)C1CCN(c2cnc(N3CCCC3)nc2)CC1
The RP-LC retention time of the first is higher: 739 s for the first, 654 s for the second.

Going from `Cc1ccc(C)c(-c2coc(-c3ccc(NC(=O)COc4ccc(F)cc4)cc3)n2)c1` to `Cc1ccccc1-c1nnc(COc2ccc(NC(=O)Cc3cccs3)cc2)o1`, the RP-LC retention time falls from 1310 s to 976 s.

Going from `Cc1ccccc1N1CCN(Cc2nc(-c3ccc(N4CCCC(C)C4)nc3)no2)CC1` (centres undefined) to `O=C(C1CCN(c2ncccc2-c2nc(-c3ccccc3)no2)CC1)N1CCOCC1`, the RP-LC retention time falls from 1160 s to 839 s.

Compared with `CCCCN(C)C(=O)C1CCCN(c2cnc3nccnc3c2)C1` (centres undefined), `CCCN1CCN(CCCNC(=O)C2CCCN(c3nc4cccnc4s3)C2)CC1` (centres undefined) is lower in RP-LC retention time: 686 s for the first, 573 s for the second.

First: CCC(NC(=O)c1cn2ccc(C)cc2n1)c1cccs1 (centres undefined)
Second: CCn1cc(-c2nc(C(=O)Nc3cc(F)cc(F)c3)cs2)c2cccnc21
The RP-LC retention time of the first is lower: 685 s for the first, 1180 s for the second.

Going from `CC(=O)Nc1ccc(Br)cc1C(=O)C(=O)NCCc1c[nH]c2ccccc12` to `CC(C(=O)NCCc1c[nH]c2ccc(Cl)cc12)n1c2ccccc2c2cnn(C)c(=O)c21` (centres undefined), the RP-LC retention time rises from 876 s to 930 s.

First: COc1ccc(-c2nc(C)cc(C)c2CNC(=O)CC2CCCC2)cc1
Second: CCc1nc(N)n(CC(=O)NCc2ccc(C)cc2)c(=O)c1C
The RP-LC retention time of the first is lower: 639 s for the first, 642 s for the second.

Going from `CCOCCCNC(=O)c1cc2n(n1)CCCN(Cc1cccc(C)c1)C2=O` to `Cc1cccc(N2CCN(S(=O)(=O)c3ccc4c(c3)CCCC(=O)N4)CC2C)c1` (centres undefined), the RP-LC retention time rises from 780 s to 881 s.

Going from `COc1ccccc1NC(=O)C1CCCN1S(=O)(=O)c1cc2c(cc1C)NC(=O)CO2` (centres undefined) to `Cc1ccc2c(=O)c3c([nH]c2c1C)CCN(CC(=O)Nc1ccccc1Cl)C3`, the RP-LC retention time falls from 808 s to 640 s.

Going from `CSc1ccc(-c2nc3cnccn3c2Nc2cccc(C(=O)N3CCCCC3)c2)cc1` to `Cc1ccn2c(Nc3ccc4c(c3)OCCO4)c(-c3ccc(N4CCOCC4)cc3)nc2c1`, the RP-LC retention time falls from 807 s to 680 s.

Going from `CC(=O)N1c2ccc(S(=O)(=O)N3CCCCC3)cc2CC1C(=O)NCc1ccc(N(C)C)cc1` (centres undefined) to `CC(=O)N1CCCc2cc(S(=O)(=O)N3CCC(C(=O)N4CCc5ccccc5C4)CC3)ccc21`, the RP-LC retention time falls from 879 s to 843 s.

First: CCN1C(=O)c2cccnc2Sc2cc(NC(=O)c3cc(C)cc(C)c3)ccc21
Second: CC(C)(C)c1cc(C(=O)Nc2cc(F)cc(F)c2)nc2ccnn12
The RP-LC retention time of the first is lower: 918 s for the first, 1360 s for the second.

Compared with `COc1ccc(NC(=O)c2cnc(N3CCN(C(=O)c4ccco4)CC3)nc2N)cc1`, `COCC(=O)Nc1ccc2nc(N3CCN(CC(=O)N4CCCCC4)CC3)cc(C(=O)O)c2c1` is lower in RP-LC retention time: 593 s for the first, 558 s for the second.

First: COCC(=O)N(CC(=O)N1CCc2sccc2C1COc1ccccc1OC)C(C)C (centres undefined)
Second: COc1cc(OC)cc(C(=O)N2CCC(C(=O)NCCc3csc(-c4cccs4)n3)CC2)c1
The RP-LC retention time of the first is higher: 795 s for the first, 792 s for the second.

Going from `CN(CC1CCOC1)C(=O)Nc1cccc(F)c1` (centres undefined) to `CC(C)NC(=O)N1CCCC(Cn2cnc3cccnc32)C1` (centres undefined), the RP-LC retention time falls from 660 s to 610 s.

Compared with `CCCNC(=O)N1CCCN(S(C)(=O)=O)CC1`, `O=C([C@@H]1C[C@H](F)CN1S(=O)(=O)c1ccc(Br)cc1)N1CCCCC1` is higher in RP-LC retention time: 582 s for the first, 865 s for the second.

First: O=C(NC1CCN(c2cc(-c3cccs3)[nH]n2)C1)c1ccccn1 (centres undefined)
Second: O=C(NCc1csc(C2CCCN(C(=O)c3ccccc3)C2)n1)C1CC1 (centres undefined)
The RP-LC retention time of the first is lower: 667 s for the first, 693 s for the second.

Compared with `CCc1ccc(S(=O)(=O)N2CC=C(c3cn(C)c4ncccc34)CC2)cc1`, `Cc1nn(C)cc1C(=O)N(Cc1ccccc1)c1ccccn1` is lower in RP-LC retention time: 1100 s for the first, 674 s for the second.

First: Cc1oc(-c2[nH]ncc2C(=O)N2CCCC2)cc1S(=O)(=O)N(C)C
Second: O=C1CCCCC(CNC(=O)c2n[nH]c(=O)c3ccccc23)N1 (centres undefined)
The RP-LC retention time of the first is higher: 620 s for the first, 604 s for the second.

Compared with `COc1cccc2cc(C(=O)NCCC(O)C(C)(C)C)oc12` (centres undefined), `COCCOC1CCC12CCN(C(=O)c1ocnc1C)CC2` (centres undefined) is lower in RP-LC retention time: 770 s for the first, 686 s for the second.

`O=C(c1ccco1)N1CCc2c([nH]c3ccccc23)C1c1ccc(Cl)cc1` (centres undefined) showed an RP-LC retention time of 1170 s.
